From patent US9139613B2, “Macrocyclic compounds and methods for their production” (NEUROVIVE PHARMACEUTICAL AB, priority 2011, dated 2015)
pEC50, pIC50: −log10 of the molar value. Read-outs that look alike come from different tables or passages of the source.

Tests used:
[1] = system: HCV genotype 1b replicon in Huh5.2 cells; assay: HCV genotype 1b replicon assay using Huh5.2 cells (antiviral effect, luciferase); type: cell-based, Hepatitis C virus; conditions: for pEC50: Hepatitis C virus, Huh-5-2, genotype 1b replicon, Huh5.2 cells, 72 hours; for Selectivity index (CC50/EC50): Huh5.2 replicon assay
Experimental: (§1) Dilution series are prepared; each dilution series is performed in at least duplicate.
For the evaluation of antiviral effects, assay medium is aspirated and the cell monolayers are washed with PBS. The wash buffer is aspirated, 25 μL of Glo Lysis Buffer (Cat. N°. E2661, Promega) is added after which lysis is allowed to proceed for 5 min at room temperature. Subsequently, 50 μL of Luciferase Assay System (Cat. N^o. E1501, Promega) is added and the luciferase luminescence signal is quantified immediately (1000 ms integration time/well, Safire^2, Tecan). Relative luminescence units are converted to percentage of untreated controls.
(§2) The selectivity index (SI), indicative of the therapeutic window of the compound, is calculated as CC50/EC50.

[2] = Anti-metabolic effect (MTS) in Huh5.2 replicon cells; conditions: human
Experimental: as §1, §2

[3] = biological target: T1, CypA Peptidyl Prolyl cis-trans Isomerase (PPlase) (Homo sapiens, UniProt P62937); assay: Inhibition of CypA PPIase activity; type: biochemical
T1 construct: GST (cleaved yes); made in house
T1 sequence (P62937 whole entry): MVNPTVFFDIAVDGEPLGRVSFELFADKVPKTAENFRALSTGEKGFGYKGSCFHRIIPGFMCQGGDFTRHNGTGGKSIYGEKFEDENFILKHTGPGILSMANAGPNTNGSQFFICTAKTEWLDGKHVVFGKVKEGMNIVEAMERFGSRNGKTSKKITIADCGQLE
Experimental: An alternative methodology for analysing interaction with cyclophilins is described as follows: The PPlase activity of recombinant CypA or D, produced by thrombin cleavage of GST-CypA or D, was determined by following the rate of hydrolysis of N-succinyl-Ala-Ala-Pro-Phe-p-nitroanilide by chymotrypsin. Chymotrypsin only hydrolyzes the trans form of the peptide, and hydrolysis of the cis form, the concentration of which is maximized by using a stock dissolved in trifluoroethanol containing 470 mM LiCl, is limited by the rate of cis-trans isomerization. CypA or D was equilibrated for 1 h at 5° C. with selected test article using a drug concentration range from 0.1 to 20 nM. The reaction was started by addition of the peptide, and the change in absorbance was monitored spectrophotometrically at 10 data points per second. The blank rates of hydrolysis (in the absence of CypA or D) were subtracted from the rates in the presence of CypA or D. The initial rates of the enzymatic reaction were analyzed by first-order regression analysis of the time course of the change in absorbance.

[4] = immunosuppressive activity; cited from earlier work
[5] = system: HIV; assay: HIV antiviral assay using HeLa cells; type: cell-based, Human Immunodeficiency Virus
[6] = Mouse in vivo oral and iv PK; conditions: male, whole blood, CD1 mice
Experimental: For sanglifehrin analogues, whole blood is analysed. Compounds are formulated in 5% ethanol/5% cremophor EL/90% saline for both p.o. and i.v. administration. Groups of 3 male CD1 mice are dosed with either 1 mg/kg i.v. or 5 or 10 mg/kg p.o. Blood samples (40 μL) are taken via saphenous vein, pre-dose and at 0.25, 0.5, 2, 8, and 24 hours, and diluted with an equal amount of dH20 and put on dry ice immediately. Samples are stored at −70° C. until analysis. The concentration of the compound of the invention or parent compound in the sample is determined via LCMS as follows: 20 μL of blood:H2O (1:1, v/v)/PK sample is added with 20 μL Internal standard (hydroxyl macrocycle, 6) at 100 ng/mL, 20 μL working solution/MeOH and 150 μL of ACN, vortexed for 1 minute at 1500 rpm, and centrifuged at 12000 rpm for 5 min. The supernatant is then injected into LC-MS/MS. The time-course of blood concentrations is plotted and used to derive area under the whole blood concentration-time curve (AUC—which is directly proportional to the total amount of unchanged drug that reaches the systemic circulation). These values are used to generate PK parameters where possible.
To assess the pharmacokinetics of the compounds in an in vivo setting, compounds were dosed po at 10 or 5 mg/kg and iv at 1 mg/kg to groups of CD1 mice. Pharmacokinetic analysis was carried out as described in the general methods. […]

**Q.** With `CC(=O)CC[C@H]1C(=O)N[C@@H](C(C)C)C(=O)N[C@@H](Cc2ccc(C)c(O)c2)C(=O)N2CCCC(N2)C(=O)O[C@H](/C(C)=C/C=C/C(=O)N2CCCCO2)C/C=C/C=C/[C@H](O)[C@H](C)[C@H]1O` (stereo partly shown) [Compound 27] as the compound, how does the pEC50 [1] read?
**A.** 6.92

**Q.** What about the “Selectivity index (CC50/EC50)” value [1] of the same compound?
**A.** >826

**Q.** What about the CC50 at 72 h ([2]; Huh5.2 cells containing the HCV genotype 1b replicon) of the same compound?
**A.** > 100000 nM

**Q.** What about the pIC50 ([3]; read-out: CypA PPIase IC50) of the same compound?
**A.** 9.46

**Q.** For `CC[C@H]1C[C@H](C)[C@@]2(NC1=O)O[C@@H](C[C@H](O)[C@@H](C)CC/C=C/C=C(\C)[C@@H]1C/C=C/C=C/[C@H](O)[C@H](C)[C@@H](O)[C@@H](CCC(C)=O)C(=O)N[C@@H](C(C)C)C(=O)N[C@@H](Cc3cccc(O)c3)C(=O)N3CCC[C@H](N3)C(=O)O1)[C@H](C)[C@H](O)[C@@H]2C` [Sanglifehrin A, 5, Sanglifehrin A], which “less potent than Cyclosporine A” value [4] is on record?
**A.** 10 fold

**Q.** With `C[C@H](Cn1cnc2c(N)ncnc21)OCP(=O)(O)O` [Tenofovir] as the compound, how does the pEC50 [5] read?
**A.** 5.98

**Q.** With `CC(=O)CC[C@H]1C(=O)N[C@@H](C(C)C)C(=O)N[C@@H](Cc2cc(O)cc(F)c2)C(=O)N2CCCC(N2)C(=O)O[C@H](/C(C)=C/C=C/C(=O)Nc2ccccn2)C/C=C/C=C/[C@H](O)[C@H](C)[C@H]1O` (stereo partly shown) [Compound 25] as the compound, how does the pEC50 [1] read?
**A.** 7.18

**Q.** What about the “Selectivity index (CC50/EC50)” value [1] of the same compound?
**A.** >1515

**Q.** And the CC50 at 72 h [2]?
**A.** > 100000 nM

**Q.** And the pIC50 [3]?
**A.** 8.94

**Q.** With `CON(C)C(=O)/C=C/C=C(\C)[C@@H]1C/C=C/C=C/[C@H](O)[C@H](C)[C@@H](O)[C@@H](CCC(C)=O)C(=O)N[C@@H](C(C)C)C(=O)N[C@@H](Cc2cc(O)cc(F)c2)C(=O)N2CCCC(N2)C(=O)O1` (stereo partly shown) [Compound 23] as the compound, how does the pEC50 [1] read?
**A.** 7.17

**Q.** And the “Selectivity index (CC50/EC50)” value [1]?
**A.** >1493

**Q.** And the CC50 at 72 h [2]?
**A.** > 100000 nM

**Q.** And the clearance ([6]; iv at 1 mg/kg)?
**A.** 0.65 mL/min/kg

**Q.** And the AUC(0-t) ([6]; po, dose level 5 mg/kg, read-out: po AUClast)?
**A.** 2760 ng·h/mL

**Q.** And the pIC50 ([3]; read-out: CypA PPIase IC50)?
**A.** 9.48
